# Reference: patent US12319655B2, “RAF kinase inhibitors and methods of use thereof” (Deciphera Pharmaceuticals, LLC, priority 2021, dated 2025)
# Tests used:
# [1] = target: A-Raf kinase (SEQ. ID No: 1) (Homo sapiens (Human), UniProt P10398, Y301D/Y302D); experiment: Biochemical Assay for A-Raf (1); details: Table J, assay version (1); read-out: ARAF (1) IC50
# In short: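 IC50 values were derived by four-parameter sigmoidal fitting of percent inhibition, calculated from reaction rates over the 4–5 h window. Absorbance at 340 nm was tracked for 6 h at 30 °C via coupled PK/LDH NADH depletion. Conditions: 1 mM ATP, 30.1 nM MEK substrate, 5.55 nM A-Raf (Y301D/Y302D), Tris pH 7.5, 1% DMSO.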
# [2] = target: C-Raf kinase (SEQ. ID NO: 3) (Homo sapiens (Human), UniProt P04049, Y340D/Y341D); experiment: Biochemical Assay for C-Raf (1); details: Table J, assay version (1); read-out: CRAF (1) IC50
# Chain of C-Raf kinase (SEQ. ID NO: 3) (P04049 307-648 Y340D/Y341D): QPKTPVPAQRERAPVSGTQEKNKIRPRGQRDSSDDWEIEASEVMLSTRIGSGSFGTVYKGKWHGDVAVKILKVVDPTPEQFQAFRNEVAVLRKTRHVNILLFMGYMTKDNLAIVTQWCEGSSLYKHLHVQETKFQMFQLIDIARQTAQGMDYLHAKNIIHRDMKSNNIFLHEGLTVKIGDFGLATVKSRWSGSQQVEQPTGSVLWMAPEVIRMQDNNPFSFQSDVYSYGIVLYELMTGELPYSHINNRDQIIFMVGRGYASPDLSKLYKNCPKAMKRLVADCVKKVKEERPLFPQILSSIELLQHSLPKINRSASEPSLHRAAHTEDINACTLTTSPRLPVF
# In short: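 IC50 values come from a four-parameter fit of percent inhibition, using the reaction rate over 4–5 h of a 6 h continuous 340 nm read at 30 °C. The enzyme mix was C-Raf 0.43 nM, MEK substrate 30.1 nM and ATP 1 mM, in a PK/LDH NADH-coupled format in Tris pH 7.5 with 1% DMSO.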
# A375 cells = experiment: A375 Cell Proliferation Assay (1); type: cell-based; details: Homo sapiens, A-375
# In short: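 Resazurin fluorescence (excitation 540 nm, emission 600 nm, after a further 5-6 h) gave IC50s from triplicate compound dilution series.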
# Miapaca-2 cells = experiment: MiaPaca-2 Cell Proliferation Assay (1); type: cell-based; details: Homo sapiens, MIA PaCa-2, single agent, read-out: MiaPaca2 (1) IC50
# In short: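 Resazurin was added after compound exposure and incubated 5-6 h, then fluorescence read at 540 nm excitation and 600 nm emission to give IC50.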
# Chain of A-Raf kinase (SEQ. ID No: 1) (P10398 other isoform, or with tags, fused parts or gaps Y301D (already in the parent)/Y302D (already in the parent)): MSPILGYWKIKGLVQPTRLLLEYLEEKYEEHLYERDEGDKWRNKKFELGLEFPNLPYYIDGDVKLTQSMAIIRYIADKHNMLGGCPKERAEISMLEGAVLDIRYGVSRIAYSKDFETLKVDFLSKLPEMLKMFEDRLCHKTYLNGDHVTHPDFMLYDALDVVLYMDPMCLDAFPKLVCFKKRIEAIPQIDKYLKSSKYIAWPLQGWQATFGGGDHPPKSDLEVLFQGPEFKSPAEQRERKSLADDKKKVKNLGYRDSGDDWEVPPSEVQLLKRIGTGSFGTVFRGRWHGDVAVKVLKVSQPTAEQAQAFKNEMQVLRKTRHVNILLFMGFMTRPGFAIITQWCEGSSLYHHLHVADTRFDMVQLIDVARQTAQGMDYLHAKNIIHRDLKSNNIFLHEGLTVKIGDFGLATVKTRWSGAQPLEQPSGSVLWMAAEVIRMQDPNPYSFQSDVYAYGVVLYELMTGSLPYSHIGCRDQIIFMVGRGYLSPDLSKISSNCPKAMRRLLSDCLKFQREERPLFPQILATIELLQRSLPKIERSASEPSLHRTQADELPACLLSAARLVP
SMILES,IC50 [1],IC50 [2],IC50 (A375 cells),IC50 (Miapaca-2 cells)
CCOc1cc(-c2cc(NC(=O)c3ccnc(C(F)(F)F)c3)ccc2C)cc(-c2ccnc(NC(=O)C3CC3)c2)n1 [Example 12],1000 to 10000 nM,≤ 100 nM,100 to 500 nM,1000 to 10000 nM
Cc1ccc(NC(=O)c2ccnc(C(F)(F)F)c2)cc1-c1cc(-c2ccnc(NC(=O)C3CC3)c2)n(C)c(=O)c1 [Example 13],1000 to 10000 nM,≤ 100 nM,1000 to 10000 nM,1000 to 10000 nM
CC(=O)Nc1cc(-c2cc(-c3cc(NC(=O)c4ccnc(C(F)(F)F)c4)ccc3C)cc(C3CC3)n2)ccn1 [Example 14],1000 to 10000 nM,≤ 100 nM,≤ 100 nM,1000 to 10000 nM
CC(=O)Nc1cc(-c2cc(-c3cc(NC(=O)c4ccnc(C(F)(F)F)c4)ccc3C)cc(N3CCOCC3)n2)ccn1 [Example 15],1000 to 10000 nM,≤ 100 nM,≤ 100 nM,1000 to 10000 nM
"Cc1ccc(NC(=O)c2ccnc(C(F)(F)F)c2)cc1-c1ccnc(-c2ccnc(N)c2)c1 [Example 16, N-(3-(2′-amino-[2,4′-bipyridin]-4-yl)-4-methylphenyl)-2-(trifluoromethyl)isonicotinamide]",1000 to 10000 nM,≤ 100 nM,1000 to 10000 nM,1000 to 10000 nM
Cc1ccc(NC(=O)c2ccnc(C(F)(F)F)c2)cc1-c1ccnc(-c2ccnc(NC(=O)CN(C)C)c2)c1 [Example 17],1000 to 10000 nM,≤ 100 nM,100 to 500 nM,1000 to 10000 nM
Cc1ccc(NC(=O)c2ccnc(C(F)(F)F)c2)cc1-c1ccnc(-c2ccnc3c2CC(=O)N3)c1 [Example 18],1000 to 10000 nM,≤ 100 nM,1000 to 10000 nM,1000 to 10000 nM
CC(=O)Nc1cc(-c2cc(-c3cc(NC(=O)c4ccnc(C(C)(C)C#N)c4)ccc3C)ccn2)ccn1 [Example 19],500 to 1000 nM,≤ 100 nM,≤ 100 nM,100 to 500 nM
Cc1cc(-c2cc(NC(=O)c3ccnc(C(F)(F)F)c3)ccc2C)cc(-c2ccnc3c2CC(=O)N3)n1 [Example 20],1000 to 10000 nM,≤ 100 nM,1000 to 10000 nM,1000 to 10000 nM
Cc1ccc(NC(=O)c2cc(CN(C)C)cc(C(F)(F)F)c2)cc1-c1cncc(-c2ccnc(NC(=O)C3CC3)c2)n1 [Example 185],100 to 500 nM,≤ 100 nM,≤ 100 nM,–
Cc1ccc(NC(=O)c2ccnc(C(C)(C)F)c2)cc1-c1ccnc(-c2ccnc(NC(=O)C3CC3)c2)n1 [Example 186],500 to 1000 nM,≤ 100 nM,≤ 100 nM,1000 to 10000 nM
Cc1ccc(NC(=O)c2ccnc(C3(C#N)CC3)c2)cc1-c1nccc(-c2ccnc(NC(=O)C3CC3)c2)n1 [Example 187],100 to 500 nM,≤ 100 nM,≤ 100 nM,1000 to 10000 nM
Cc1ccc(NC(=O)c2ccnc(C(F)F)c2)cc1-c1ccnc(-c2ccnc(NC(=O)C3CC3)c2)n1 [Example 189],500 to 1000 nM,≤ 100 nM,100 to 500 nM,1000 to 10000 nM
COC(C)(C)c1cc(C(=O)Nc2ccc(C)c(-c3ccnc(-c4ccnc(NC(=O)C5CC5)c4)n3)c2)ccn1 [Example 190],500 to 1000 nM,≤ 100 nM,≤ 100 nM,1000 to 10000 nM
CNC(=O)c1cc(-c2cccc(-c3cc(NC(=O)c4ccnc(C(C)(C)C#N)c4)ccc3C)c2)cnn1 [Example 191],1000 to 10000 nM,≤ 100 nM,≤ 100 nM,–
CNC(=O)c1cc(-c2cccc(-c3cc(NC(=O)c4ccnc(C(C)(C)C#N)c4)cnc3C)c2)ccn1 [Example 192],1000 to 10000 nM,≤ 100 nM,≤ 100 nM,1000 to 10000 nM
Cc1ncc(NC(=O)c2ccnc(C(C)(C)C#N)c2)cc1-c1ccnc(-c2ccnc(NC(=O)C3CC3)c2)n1 [Example 193],1000 to 10000 nM,≤ 100 nM,≤ 100 nM,1000 to 10000 nM
CNC(=O)c1cc(-c2nccc(-c3cc(NC(=O)c4ccnc(C(C)(C)C#N)c4)cnc3C)n2)ccn1 [Example 194],1000 to 10000 nM,100 to 500 nM,500 to 1000 nM,1000 to 10000 nM
CNC(=O)c1cc(-c2nc(-c3cc(NC(=O)c4ccnc(C(C)(C)C#N)c4)ccc3C)cc(C3CC3)n2)ccn1 [Example 196],1000 to 10000 nM,100 to 500 nM,≤ 100 nM,–
Cc1ccc(NC(=O)c2ccnc(C(C)(C)C#N)c2)cc1-c1cccc(-c2cc(NC(=O)C3(C)CC3)ncn2)c1 [Example 197],1000 to 10000 nM,100 to 500 nM,≤ 100 nM,1000 to 10000 nM
CNC(=O)c1cc(-c2ccnc(-c3cc(NC(=O)c4ccnc(C(C)(C)C#N)c4)cnc3C)n2)ccn1 [Example 199],1000 to 10000 nM,100 to 500 nM,1000 to 10000 nM,–

SMILES,IC50 [1],IC50 [2],IC50 (A375 cells),IC50 (Miapaca-2 cells)
Cc1ccc(NC(=O)c2ccnc(C(C)(C)C#N)c2)cc1-c1cccc(-c2cc(NC(=O)C3(F)CC3)ncn2)c1 [Example 200],1000 to 10000 nM,≤ 100 nM,≤ 100 nM,1000 to 10000 nM
CNC(=O)c1cc(-c2cccc(-c3cc(NC(=O)c4ccnc(C(C)(C)C#N)c4)cnc3C)c2)cnn1 [Example 201],1000 to 10000 nM,100 to 500 nM,100 to 500 nM,–
Cc1ccc(NC(=O)c2cc(CN(C)C)cc(C(F)(F)F)c2)cc1-c1cccc(-c2cc(NC(=O)C3CC3)ncn2)c1 [Example 202],1000 to 10000 nM,≤ 100 nM,≤ 100 nM,1000 to 10000 nM
Cc1ccc(NC(=O)c2ccnc(C3(C#N)CC3)c2)cc1-c1cccc(-c2cc(NC(=O)C3CC3)ncn2)c1 [Example 203],1000 to 10000 nM,≤ 100 nM,≤ 100 nM,1000 to 10000 nM
CNC(=O)c1cc(-c2cccc(-c3cc(NC(=O)c4ccnc(C(C)(C)C#N)c4)cnc3C)c2)ncn1 [Example 204],1000 to 10000 nM,100 to 500 nM,100 to 500 nM,1000 to 10000 nM
CNC(=O)c1cc(-c2cc(-c3cc(NC(=O)c4ccnc(C(C)(C)C#N)c4)ccc3F)ccn2)ccn1 [Example 205],1000 to 10000 nM,≤ 100 nM,100 to 500 nM,–
Cc1ncc(NC(=O)c2ccnc(C(C)(C)C#N)c2)cc1-c1cccc(-c2cc(N)ncn2)c1 [Example 207],1000 to 10000 nM,≤ 100 nM,1000 to 10000 nM,–
Cc1ncc(NC(=O)c2ccnc(C(C)(C)C#N)c2)cc1-c1cccc(-c2cc(NC(=O)C(C)(C)C)ncn2)c1 [Example 213],1000 to 10000 nM,500 to 1000 nM,–,1000 to 10000 nM
Cc1ccc(NC(=O)c2ccnc(C(C)(C)C#N)c2)cc1-c1cccc(-c2ccnc(NC(=O)C3CC3)c2)c1 [Example 223],500 to 1000 nM,≤ 100 nM,≤ 100 nM,–
COC(C)(C)C(=O)Nc1cc(-c2cc(-c3cc(NC(=O)c4ccnc(C(C)(C)C#N)c4)ccc3C)ccn2)ccn1 [Example 237],1000 to 10000 nM,100 to 500 nM,1000 to 10000 nM,–
CC(C)(C#N)c1cc(C(=O)Nc2ccc(C#N)c(-c3cccc(-c4cc(NC(=O)C5CC5)ncn4)c3)c2)ccn1 [Example 240],1000 to 10000 nM,≤ 100 nM,100 to 500 nM,–
CNC(=O)c1cc(-c2ccnc(-c3cc(NC(=O)c4ccnc(C(C)(C)C#N)c4)c(F)cc3C)n2)ccn1 [Example 242],1000 to 10000 nM,100 to 500 nM,500 to 1000 nM,–
CNC(=O)c1cc(-c2ccnc(-c3cc(NC(=O)c4ccnc(C(C)(C)F)c4)ccc3C)n2)ccn1 [Example 246],1000 to 10000 nM,≤ 100 nM,100 to 500 nM,–
CNC(=O)c1cc(-c2cc(-c3cc(NC(=O)c4ccnc(C(C)(C)C#N)c4)ccc3C#N)ccn2)ccn1 [Example 247],1000 to 10000 nM,100 to 500 nM,1000 to 10000 nM,–
Cc1ccc(NC(=O)c2ccnc(C3CC3)c2)cc1-c1cccc(-c2cc(NC(=O)C3CC3)ncn2)c1 [Example 255],1000 to 10000 nM,≤ 100 nM,≤ 100 nM,–
CNC(=O)c1cc(-c2cc(-c3cc(NC(=O)c4ccnc(C(C)(C)C#N)c4)ccc3F)cc(C)n2)ccn1 [Example 259],1000 to 10000 nM,≤ 100 nM,500 to 1000 nM,–
CCNC(=O)c1cc(-c2cc(-c3cc(NC(=O)c4ccnc(C(C)(C)C#N)c4)ccc3C)ccn2)ccn1 [Example 266],1000 to 10000 nM,≤ 100 nM,100 to 500 nM,–
CNC(=O)c1cc(-c2ccnc(-c3cc(NC(=O)c4ccnc(C(C)(C)OC)c4)ccc3C)n2)ccn1 [Example 268],1000 to 10000 nM,100 to 500 nM,100 to 500 nM,–
Cc1ncc(NC(=O)c2ccnc(C(C)C)c2)cc1-c1cccc(-c2ccnc(NC(=O)C3CC3)c2)n1 [Example 269],1000 to 10000 nM,≤ 100 nM,≤ 100 nM,–
Cc1cc(F)c(NC(=O)c2ccnc(C(C)(C)F)c2)cc1-c1cncc(-c2ccnc(NC(=O)C3CC3)c2)n1 [Example 276],100 to 500 nM,≤ 100 nM,≤ 100 nM,–
Cc1ncc(NC(=O)c2ccnc(C3CC3)c2)cc1-c1ccnc(-c2ccnc(NC(=O)C3CC3)c2)n1 [Example 277],1000 to 10000 nM,≤ 100 nM,500 to 1000 nM,–
